Assay results: patent publication EP4810052A2, “HCRHR2 SELECTIVE POLYPEPTIDES” (Gubra A/S, priority 2023, dated 2026)
Starred links: 1 amine or outer side, 2 acyl side, 3 side chain; linkers in the order of their positions; H or OH if unused. Non-standard residues stand in square brackets, D forms with d. Residues, ends and D or L forms follow the SMILES beside them. Groups on a side chain read outwards from the residue. *: point of attachment. C20 diacid = O=C(O)CCCCCCCCCCCCCCCCCCC(=O)*; γGlu = O=C(O)[C@H](CCC(=O)[*:2])N[*:1]; NMeI = CC[C@H](C)[C@H](NC)C(=O)O; AEEA = NCCOCCOCC(=O)O

Biological target: T1, hCRHR2 (Homo sapiens, UniProt Q13324)
T1 sequence (Q13324 1-411): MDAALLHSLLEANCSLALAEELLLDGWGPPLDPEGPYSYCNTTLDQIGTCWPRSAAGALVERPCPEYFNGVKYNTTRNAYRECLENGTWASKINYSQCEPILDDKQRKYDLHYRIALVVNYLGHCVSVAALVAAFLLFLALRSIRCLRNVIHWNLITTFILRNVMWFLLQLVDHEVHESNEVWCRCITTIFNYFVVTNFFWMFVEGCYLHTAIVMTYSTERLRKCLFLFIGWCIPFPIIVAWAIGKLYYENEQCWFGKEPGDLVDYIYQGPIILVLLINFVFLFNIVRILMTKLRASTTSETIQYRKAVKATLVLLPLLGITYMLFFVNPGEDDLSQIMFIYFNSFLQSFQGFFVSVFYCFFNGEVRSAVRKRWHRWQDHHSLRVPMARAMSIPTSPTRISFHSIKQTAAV
Test: HTRF cAMP assay, determination of hCRHR2 potency (peptide libraries 5 conc., purified peptides 11 conc.)
Type: cell-based
Details: for Selectivity ratio (hCRHR1/ hCRHR2): hCRHR1-EC50/hCRHR2-EC50; for EC50: purified peptides, CHO-K1 cells stably expressing hCRHR2, cAMP HTRF, read-out: hCRHR2 EC50
Source text: HTRF (CisBio) cAMP assay: The assay technology has thoroughly been described in the CisBio HTRF cAMP assay Kit manual (# 62AM4PEC). Briefly, time resolved fluorescence technic was applied to measure cAMP. This technic is based on a competitive immunoassay using cryptate-labelled anti-cAMP antibody and d2-labeled cAMP. In the absence of cellular cAMP, the anti-cAMP cryptate conjugate may get into proximity to cAMP-d2 conjugate and energy (FRET) can be transferred from cryptate to d2.
CHO-K1 cells stably expressing the human corticotropin-releasing hormone receptor 2 (Eurofins/DiscoverX, Cat #95-0048C2 hCRHR2 stable monoclonal cell lines) were used as cells in suspension, brought to life from frozen cell stocks immediately before assay performance.
Concentration-response evaluation of compounds was performed with 5 concentrations of agonist peptides and EC50 values were calculated by nonlinear regression using sigmoid concentration-response with variable slope.
Concentration-response evaluation of compounds was performed with 11 concentrations of agonist peptides and EC50 values were calculated by nonlinear regression using sigmoid concentration-response with variable slope.

| Selectivity ratio (hCRHR1/ hCRHR2) | EC50 [nM] | SMILES |
| --- | --- | --- |
| 392 | 1.3 | CC[C@H](C)[C@H](NC)C(=O)N[C@H](C(=O)N[C@@H](CC(C)C)C(=O)N[C@@H](CO)C(=O)N[C@@H](CC(C)C)C(=O)N[C@@H](CC(=O)O)C(=O)N[C@H](C(=O)N1CCC[C@H]1C(=O)N[C@H](C(=O)NCC(=O)N[C@@H](CC(C)C)C(=O)N[C@@H](CC(C)C)C(=O)N[C@@H](CCC(N)=O)C(=O)N[C@H](C(=O)N[C@@H](CC(C)C)C(=O)N[C@@H](CC(C)C)C(=O)N[C@@H](CCC(=O)O)C(=O)N[C@@H](CCC(N)=O)C(=O)N[C@@H](CCC(=O)O)C(=O)N[C@@H](CCCCN)C(=O)N[C@@H](CCC(N)=O)C(=O)N[C@@H](CCC(=O)O)C(=O)N[C@@H](CCCCN)C(=O)N[C@@H](CCC(=O)O)C(=O)N[C@@H](CCCCN)C(=O)N[C@@H](CCC(N)=O)C(=O)N[C@@H](CCC(N)=O)C(=O)N[C@@H](C)C(=O)N[C@@H](CCCCNC(=O)COCCOCCNC(=O)COCCOCCNC(=O)CC[C@H](NC(=O)CC[C@H](NC(=O)CCCCCCCCCCCCCCCCCCC(=O)O)C(=O)O)C(=O)O)C(=O)N[C@H](C(=O)N[C@@H](CC(N)=O)C(=O)N[C@@H](C)C(=O)N[C@@H](CCC(N)=O)C(=O)N[C@H](C(=O)N[C@@H](CC(C)C)C(=O)N[C@@H](C)C(=O)N[C@@H](CCC(N)=O)C(=O)N[C@H](C(N)=O)C(C)C)[C@@H](C)CC)[C@@H](C)O)[C@@H](C)CC)[C@@H](C)CC)C(C)C)C(C)C [SEQ ID NO: 9, reference compound] (H-[NMeI]VLSLDVPIGLLQILLEQEKQEKEKQQAK([AEEA-AEEA-γGlu-γGlu-C20 diacid])TNAQILAQV-NH2) |
| 139 | 0.49 | CC[C@H](C)[C@H](NC)C(=O)N[C@H](C(=O)N[C@H](C(=O)N[C@@H](CO)C(=O)N[C@@H](CC(C)C)C(=O)N[C@@H](CC(=O)O)C(=O)N[C@H](C(=O)N1CCC[C@H]1C(=O)N[C@H](C(=O)NCC(=O)N[C@@H](CC(C)C)C(=O)N[C@@H](CC(C)C)C(=O)N[C@@H](CCC(N)=O)C(=O)N[C@H](C(=O)N[C@@H](CC(C)C)C(=O)N[C@@H](CC(C)C)C(=O)N[C@@H](CCC(=O)O)C(=O)N[C@@H](CCC(N)=O)C(=O)N[C@@H](CCC(=O)O)C(=O)N[C@@H](CCCCN)C(=O)N[C@@H](CCC(N)=O)C(=O)N[C@@H](CCC(=O)O)C(=O)N[C@@H](CCCCN)C(=O)N[C@@H](CCC(=O)O)C(=O)N[C@@H](CCCCN)C(=O)N[C@@H](CCC(N)=O)C(=O)N[C@@H](CCC(N)=O)C(=O)N[C@@H](C)C(=O)N[C@@H](CCCCNC(=O)COCCOCCNC(=O)COCCOCCNC(=O)CC[C@H](NC(=O)CC[C@H](NC(=O)CCCCCCCCCCCCCCCCCCC(=O)O)C(=O)O)C(=O)O)C(=O)N[C@H](C(=O)N[C@@H](CC(N)=O)C(=O)N[C@@H](C)C(=O)N[C@@H](CCC(=O)O)C(=O)N[C@H](C(=O)N[C@@H](CC(C)C)C(=O)N[C@@H](C)C(=O)N[C@@H](CCC(N)=O)C(=O)N[C@H](C(N)=O)C(C)C)[C@@H](C)CC)[C@@H](C)O)[C@@H](C)CC)[C@@H](C)CC)C(C)C)[C@@H](C)O)C(C)C [SEQ ID NO: 10, reference compound] (H-[NMeI]VTSLDVPIGLLQILLEQEKQEKEKQQAK([AEEA-AEEA-γGlu-γGlu-C20 diacid])TNAEILAQV-NH2) |
| 79 | 1.4 | CC[C@H](C)[C@H](NC(=O)COCCOCCNC(=O)COCCOCCNC(=O)CC[C@H](NC(=O)CC[C@H](NC(=O)CCCCCCCCCCCCCCCCCCC(=O)O)C(=O)O)C(=O)O)C(=O)N[C@H](C(=O)N[C@@H](CC(C)C)C(=O)N[C@@H](CO)C(=O)N[C@@H](CC(C)C)C(=O)N[C@@H](CC(=O)O)C(=O)N[C@H](C(=O)N1CCC[C@H]1C(=O)N[C@H](C(=O)NCC(=O)N[C@@H](CC(C)C)C(=O)N[C@@H](CC(C)C)C(=O)N[C@@H](CCC(N)=O)C(=O)N[C@H](C(=O)N[C@@H](CC(C)C)C(=O)N[C@@H](CC(C)C)C(=O)N[C@@H](CCC(=O)O)C(=O)N[C@@H](CCC(N)=O)C(=O)N[C@@H](C)C(=O)N[C@@H](CCCNC(=N)N)C(=O)N[C@@H](C)C(=O)N[C@@H](CCCNC(=N)N)C(=O)N[C@@H](C)C(=O)N[C@@H](C)C(=O)N[C@@H](CCCNC(=N)N)C(=O)N[C@@H](CCC(=O)O)C(=O)N[C@@H](CCC(N)=O)C(=O)N[C@@H](C)C(=O)N[C@H](C(=O)N[C@H](C(=O)N[C@@H](CC(N)=O)C(=O)N[C@@H](C)C(=O)N[C@@H](CCC(=O)O)C(=O)N[C@H](C(=O)N[C@@H](CC(C)C)C(=O)N[C@@H](C)C(=O)N[C@@H](CCC(=O)O)C(=O)N[C@H](C(N)=O)C(C)C)[C@@H](C)CC)[C@@H](C)O)[C@@H](C)O)[C@@H](C)CC)[C@@H](C)CC)C(C)C)C(C)C [SEQ ID NO: 260] ({C20 diacid-γGlu-γGlu-AEEA-AEEA}-IVLSLDVPIGLLQILLEQARARAAREQATTNAEILAEV-NH2) |
| 419 | 1.6 | CC[C@H](C)[C@H](NC(=O)[C@H](CCC(=O)O)NC(=O)[C@H](C)NC(=O)[C@H](CC(N)=O)NC(=O)[C@@H](NC(=O)[C@@H](NC(=O)[C@H](C)NC(=O)[C@H](CCC(N)=O)NC(=O)[C@H](CCC(=O)O)NC(=O)[C@H](CCCNC(=N)N)NC(=O)[C@H](C)NC(=O)[C@H](C)NC(=O)[C@H](CCCNC(=N)N)NC(=O)[C@H](C)NC(=O)[C@H](CCCNC(=N)N)NC(=O)[C@H](C)NC(=O)[C@H](CCC(N)=O)NC(=O)[C@H](CCC(=O)O)NC(=O)[C@H](CC(C)C)NC(=O)[C@H](CC(C)C)NC(=O)[C@@H](NC(=O)[C@H](CCC(N)=O)NC(=O)[C@H](CC(C)C)NC(=O)[C@H](CC(C)C)NC(=O)CNC(=O)[C@@H](NC(=O)[C@@H]1CCCN1C(=O)[C@@H](NC(=O)[C@H](CC(=O)O)NC(=O)[C@H](CC(C)C)NC(=O)[C@H](CO)NC(=O)[C@H](CC(C)C)NC(=O)[C@@H](NC(=O)[C@@H](NC(=O)[C@@H](N)CCCCNC(=O)COCCOCCNC(=O)COCCOCCNC(=O)CC[C@H](NC(=O)CC[C@H](NC(=O)CC[C@H](NC(=O)CCCCCCCCCCCCCCCCCCC(=O)O)C(=O)O)C(=O)O)C(=O)O)[C@@H](C)CC)C(C)C)C(C)C)[C@@H](C)CC)[C@@H](C)CC)[C@@H](C)O)[C@@H](C)O)C(=O)N[C@@H](CC(C)C)C(=O)N[C@@H](C)C(=O)N[C@@H](CCC(=O)O)C(=O)N[C@H](C(N)=O)C(C)C [SEQ ID NO: 11, reference compound] (H-K([AEEA-AEEA-γGlu-γGlu-γGlu-C20 diacid])IVLSLDVPIGLLQILLEQARARAAREQATTNAEILAEV-NH2) |
| 400 | 1.4 | CC[C@H](C)[C@H](NC(C)=O)C(=O)N[C@H](C(=O)N[C@@H](CC(C)C)C(=O)N[C@@H](CO)C(=O)N[C@@H](CC(C)C)C(=O)N[C@@H](CC(=O)O)C(=O)N[C@H](C(=O)N1CCC[C@H]1C(=O)N[C@H](C(=O)NCC(=O)N[C@@H](CC(C)C)C(=O)N[C@@H](CC(C)C)C(=O)N[C@@H](CCC(N)=O)C(=O)N[C@H](C(=O)N[C@@H](CC(C)C)C(=O)N[C@@H](CC(C)C)C(=O)N[C@@H](CCC(=O)O)C(=O)N[C@@H](CCC(N)=O)C(=O)N[C@@H](C)C(=O)N[C@@H](CCCNC(=N)N)C(=O)N[C@@H](C)C(=O)N[C@@H](CCCNC(=N)N)C(=O)N[C@@H](C)C(=O)N[C@@H](C)C(=O)N[C@@H](CCCNC(=N)N)C(=O)N[C@@H](CCC(=O)O)C(=O)N[C@@H](CCC(N)=O)C(=O)N[C@@H](C)C(=O)N[C@@H](CCCCNC(=O)COCCOCCNC(=O)COCCOCCNC(=O)CC[C@H](NC(=O)CC[C@H](NC(=O)CCCCCCCCCCCCCCCCCCC(=O)O)C(=O)O)C(=O)O)C(=O)N[C@H](C(=O)N[C@@H](CC(N)=O)C(=O)N[C@@H](C)C(=O)N[C@@H](CCC(=O)O)C(=O)N[C@H](C(=O)N[C@@H](CC(C)C)C(=O)N[C@@H](C)C(=O)N[C@@H](CCC(=O)O)C(=O)N[C@H](C(N)=O)C(C)C)[C@@H](C)CC)[C@@H](C)O)[C@@H](C)CC)[C@@H](C)CC)C(C)C)C(C)C [SEQ ID NO: 8] (Ac-IVLSLDVPIGLLQILLEQARARAAREQAK([AEEA-AEEA-γGlu-γGlu-C20 diacid])TNAEILAEV-NH2) |
